According to patent publication US20040116336A1, “Peptide derivatives” (priority 2002, published 2004):
Starred links: 1 amine or outer side, 2 acyl side, 3 side chain; linkers in the order of their positions; H or OH if unused. Non-standard residues stand in square brackets, D forms with d. Residues, ends and D or L forms follow the SMILES beside them. No end group written: not given here. Phe(4-Cl) = N[C@@H](Cc1ccc(Cl)cc1)C(=O)O; 2Nal = N[C@@H](Cc1ccc2ccccc2c1)C(=O)O; Adipoyl = O=C(CCCCC(=O)[*:2])[*:1]; Lys(Me2) = CN(C)CCCC[C@H](N)C(=O)O; Cha = N[C@@H](CC1CCCCC1)C(=O)O; NMeA = CN[C@@H](C)C(=O)O; Dap = NC[C@H](N)C(=O)O

Tests used:
[1] = biological target: T1, APJ (Homo sapiens, UniProt P35414); assay: Inhibitory activity on forskolin-stimulated cAMP production in CHO-A10 clone 6 cells; format: cell-based; conditions: read-out: EC50
T1 construct: expressed in transfected cells; host or cells: CHO (CHO-A10; clone 6 for the cAMP assay)
T1 sequence (P35414 1-380): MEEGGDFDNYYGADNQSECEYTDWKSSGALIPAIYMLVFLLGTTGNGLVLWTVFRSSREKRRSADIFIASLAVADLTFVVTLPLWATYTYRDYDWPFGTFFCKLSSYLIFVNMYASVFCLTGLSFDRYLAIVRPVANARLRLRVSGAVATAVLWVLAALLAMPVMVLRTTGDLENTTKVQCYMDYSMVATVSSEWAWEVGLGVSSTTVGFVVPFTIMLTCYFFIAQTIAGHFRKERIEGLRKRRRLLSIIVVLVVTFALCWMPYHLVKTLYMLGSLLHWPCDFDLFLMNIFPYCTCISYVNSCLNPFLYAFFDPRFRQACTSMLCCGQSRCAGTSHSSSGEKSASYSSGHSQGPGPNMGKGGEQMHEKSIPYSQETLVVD
Experimental: Measurement of an Inhibitory Activity on Forskolin-Stimulated cAMP Production
Hanks' balanced salt solution (HBSS) containing 0.2 mM 3-isobutyl-1-methylxanthine (IBMX) and 0.05% bovine serum albumin was prepared as an assay buffer, and each well was washed twice with 500 μl assay buffer and pre-incubated at 37° C. for 30 minutes. Further, each well was washed once with 500 μl assay buffer, and a sample dissolved in the assay buffer containing 1 μM forskolin was added at a volume of 500 μl/well and incubated at 37° C. for 30 minutes. Wells incubated with the assay buffer not containing forskolin were prepared in the same manner in order to determine the basal level of cellular cAMP production, while wells incubated with the assay buffer containing forskolin were also prepared in order to determine the maximum level of cAMP production stimulated with forskolin. After incubation was finished, each well was washed once with 500 μl assay buffer, and 500 μl lysis buffer 1B attached to a cAMP EIA system from Amersham was added to each well, to extract cAMP. According to the protocol of the kit, 100 μl of each extract was used to determine the level of cAMP. For the inhibitory activity of the sample on cAMP production, the difference (inhibited cAMP production) between the maximum level and the level of cAMP in the sample-containing wells was determined, and the inhibitory activity was expressed as percentage relative to the increased level of cAMP production stimulated with forskolin (that is, the difference between the maximum level and basal level), and from this dose-reaction curve, the EC50 was determined.

[2] = biological target: T1, APJ; assay: Receptor binding assay-2 (compound in Reference Example 2 used); conditions: compound in Reference Example 2 used as ligand; read-out: IC50
Experimental: This product was mixed with an equal volume of an assay buffer (50 mM Tris-HCl/pH 7.5, 5 mM EDTA, 0.5 mM PMSF, 20 μg/ml leupeptin, 0.1 μg/ml pepstatin A, 4 μg/ml E-64 (Peptide Research Laboratory, Co.), 0.1% bovine serum albumin) and stored at −30° C. before use.
CHO-A10 cells were cultured, recovered with PBS containing 5 mM EDTA from a culture vessel, and suspended in the above-mentioned assay buffer not containing bovine serum albumin. The cells were homogenized 3 times at 12,000 rpm for 15 seconds by a Polytron homogenizer (manufactured by Kinematica Inc.) and then centrifuged (1000×g, 4° C., 10 minutes), and the supernatant was recovered. The precipitates were subjected again to the same procedure as above, and the respective supernatants were combined and centrifuged at 100,000×g, 4° C. for 1 hour, to recover precipitates (membrane fraction). The membrane fraction was suspended again in a small amount of the buffer, homogenized with a Teflon homogenizer and stored at −80° C. before use.
Binding assay was carried out under the following conditions. […] Measurement of non-specific binding was carried out using a well containing 1 μM unlabeled compound in place of the test sample. After the incubation was finished, a cell harvester (Packard) adapted to 96 wells and a filter unit (GF/C, Packard) were used for separation thereby capturing the membrane fraction on the filter. After the filter was sufficiently dried, Microcinti 0 (Packard) was added thereto, and using Top Count (Packard), the amount of the labeled material captured together with the membrane fraction on the filter was measured.

Row | Compound | EC50 [1] [nM] | IC50 [2] [nM]
1 | CC(C)C[C@H](NC(=O)[C@H](CCCNC(=N)N)NC(=O)[C@@H]1CCCN1C(=O)[C@@H](N)CCCNC(=N)N)C(=O)N[C@@H](CO)C(=O)N[C@@H](Cc1c[nH]cn1)C(=O)N[C@@H](C)C(=O)NCC(=O)N1CCC[C@H]1C(=O)N[C@@H](CC1CCCCC1)C(=O)N1CCC[C@H]1C(=O)N[C@@H](Cc1ccc(Cl)cc1)C(=O)O [Compound in Ex. 56] (H-RPRLSHAGP[Cha]P[Phe(4-Cl)]-OH; N-terminus and C-terminus assumed) | 0.58 | 0.22
2 | CC(C)C[C@H](NC(=O)[C@H](CCCNC(=N)N)NC(=O)[C@@H]1CCCN1C(=O)[C@@H](N)CCCNC(=N)N)C(=O)N[C@@H](CO)C(=O)N[C@@H](CNC(=O)CCCCC(=O)O)C(=O)N[C@@H](CCCNC(=N)N)C(=O)NCC(=O)N1CCC[C@H]1C(=O)N[C@@H](CC1CCCCC1)C(=O)N1CCC[C@H]1C(=O)N[C@@H](Cc1ccc(Cl)cc1)C(=O)O [Compound in Ex. 68, Arg-Pro-Arg-Leu-Ser-Dap(Adi)-Arg-Gly-Pro-Cha-Pro-Phe(Cl)] (H-RPRLS[Dap](Adipoyl)RGP[Cha]P[Phe(4-Cl)]-OH; N-terminus and C-terminus assumed) | 0.42 | 0.13
3 | RPRLSARGPM [Compound in Ex. 27] |  | 0.11
4 | CC(C)C[C@H](NC(=O)[C@H](CCCNC(=N)N)NC(=O)[C@@H]1CCCN1C(=O)[C@@H](N)CCCNC(=N)N)C(=O)N[C@@H](CO)C(=O)N[C@@H](CN)C(=O)N[C@@H](CCCNC(=N)N)C(=O)NCC(=O)N1CCC[C@H]1C(=O)N[C@@H](CC1CCCCC1)C(=O)N1CCC[C@H]1C(=O)N[C@@H](Cc1ccc(Cl)cc1)C(=O)O [Compound in Ex. 65, Arg-Pro-Arg-Leu-Ser-Dap-Arg-Gly-Pro-Cha-Pro-Phe(Cl)] (H-RPRLS[Dap]RGP[Cha]P[Phe(4-Cl)]-OH) | 0.52 | 0.26
5 | CC(C)C[C@H](NC(=O)[C@H](C)NC(=O)[C@@H]1CCCN1C(=O)[C@@H](N)CCCNC(=N)N)C(=O)N[C@@H](CO)C(=O)N[C@@H](Cc1c[nH]cn1)C(=O)N[C@@H](CCCCN)C(=O)NCC(=O)N1CCC[C@H]1C(=O)N[C@@H](CC1CCCCC1)C(=O)N1CCC[C@H]1C(=O)N[C@@H](Cc1ccc(Cl)cc1)C(=O)O [Compound in Ex. 58] (H-RPALSHKGP[Cha]P[Phe(4-Cl)]-OH; N-terminus and C-terminus assumed) | 0.41 | 0.15
6 | CSCC[C@H](NC(=O)[C@@H]1CCCN1C(=O)CNC(=O)[C@H](CCCNC(=N)N)NC(=O)[C@H](C)NC(=O)[C@H](CO)NC(=O)[C@H](CC(C)C)NC(=O)[C@H](CCCNC(=N)N)NC(=O)[C@@H]1CCCN1C(=O)[C@H](CCCNC(=N)N)NC(=O)[C@H](CCC(N)=O)NC(=O)[C@H](CCCNC(=N)N)NC(=O)[C@@H](N)CCCNC(=N)N)C(=O)N1CCC[C@H]1C(=O)N[C@@H](Cc1ccccc1)C(=O)O [Compound in Ex. 17] | 0.39 | 0.036
7 | C[C@H](NC(=O)[C@H](CCCNC(=N)N)NC(=O)[C@@H]1CCCN1C(=O)[C@@H](N)CCCNC(=N)N)C(=O)N[C@@H](CO)C(=O)N[C@@H](Cc1c[nH]cn1)C(=O)N[C@@H](CCCCN)C(=O)NCC(=O)N1CCC[C@H]1C(=O)N[C@@H](CC1CCCCC1)C(=O)N1CCC[C@H]1C(=O)N[C@@H](Cc1ccc(Cl)cc1)C(=O)O [Compound in Ex. 57] (H-RPRASHKGP[Cha]P[Phe(4-Cl)]-OH; N-terminus and C-terminus assumed) | 0.52 | 0.17

The remaining compounds from weak to strong by EC50 [1], led by results:

Row | EC50 [1] [nM] | IC50 [2] [nM] | Compound
8 | 0.38 |  | CSCC[C@H](NC(=O)[C@@H]1CCCN1C(=O)CNC(=O)[C@H](CCCCN(C)C)NC(=O)[C@H](C)NC(=O)[C@H](CO)NC(=O)[C@H](CC(C)C)NC(=O)[C@H](CCCNC(=N)N)NC(=O)[C@@H]1CCCN1C(=O)[C@@H](N)CCCNC(=N)N)C(=O)N1CCC[C@H]1C(=O)N[C@@H](Cc1ccccc1)C(=O)O [Compound in Ex. 64, Arg-Pro-Arg-Leu-Ser-Ala-Lys(Me)2-Gly-Pro-Met-Pro-Phe] (H-RPRLSA[Lys(Me2)]GPMPF-OH; N-terminus and C-terminus assumed)
9 | 0.37 | 0.61 | CSCC[C@H](NC(=O)[C@@H]1CCCN1C(=O)CNC(=O)[C@H](CCCCN)NC(=O)[C@H](Cc1c[nH]cn1)NC(=O)[C@H](CO)NC(=O)[C@H](CC(C)C)NC(=O)[C@H](CCCNC(=N)N)NC(=O)[C@@H]1CCCN1C(=O)[C@@H](N)CCCNC(=N)N)C(=O)N[C@@H](Cc1ccc2ccccc2c1)C(=O)O [Compound in Ex. 40] (H-RPRLSHKGPM[2Nal]-OH)
10 | 0.37 | 0.064 | CC(C)C[C@H](NC(=O)[C@H](CCCNC(=N)N)NC(=O)[C@@H]1CCCN1C(=O)[C@@H](N)CCCNC(=N)N)C(=O)N[C@@H](CO)C(=O)N[C@@H](C)C(=O)N[C@@H](CCCNC(=N)N)C(=O)NCC(=O)N1CCC[C@H]1C(=O)N[C@@H](C)C(=O)N1CCC[C@H]1C(=O)N[C@@H](Cc1ccc(Cl)cc1)C(=O)O [Compound in Ex. 53] (H-RPRLSARGPAP[Phe(4-Cl)]-OH; N-terminus and C-terminus assumed)
11 | 0.32 | 0.18 | CSCC[C@H](NC(=O)[C@@H]1CCCN1C(=O)CNC(=O)[C@H](CCCNC(=N)N)NC(=O)[C@H](C)NC(=O)[C@H](CO)NC(=O)[C@H](CC(C)C)NC(=O)[C@H](CCCNC(=N)N)NC(=O)[C@@H]1CCCN1C(=O)[C@H](CCCNC(=N)N)NC(=O)[C@H](CCC(N)=O)NC(=O)[C@H](CCCNC(=N)N)NC(=O)[C@@H](N)CCCNC(=N)N)C(=O)N1CCC[C@H]1C(=O)N[C@@H](Cc1ccc(Cl)cc1)C(N)=O [Compound in Ex. 59]
12 | 0.32 | 0.12 | CSCC[C@H](NC(=O)[C@@H]1CCCN1C(=O)CNC(=O)[C@H](CCCCN)NC(=O)[C@H](Cc1c[nH]cn1)NC(=O)[C@H](CO)NC(=O)[C@H](CC(C)C)NC(=O)[C@H](CCCNC(=N)N)NC(=O)[C@@H]1CCCN1C(=O)[C@H](CCCNC(=N)N)NC(=O)[C@H](CCCNC(=N)N)NC(=O)[C@H](CCCNC(=N)N)NC(=O)[C@@H](N)CCCNC(=N)N)C(=O)N1CCC[C@H]1C(=O)N[C@@H](Cc1ccccc1)C(=O)O [Compound in Ex. 22]
13 | 0.27 | 0.09 | CSCC[C@H](NC(=O)[C@H](C)N(C)C(=O)CNC(=O)[C@H](CCCNC(=N)N)NC(=O)[C@H](C)NC(=O)[C@H](CO)NC(=O)[C@H](CC(C)C)NC(=O)[C@H](CCCNC(=N)N)NC(=O)[C@@H]1CCCN1C(=O)[C@@H](N)CCCNC(=N)N)C(=O)N1CCC[C@H]1C(=O)N[C@@H](Cc1ccc(Cl)cc1)C(=O)O [Compound in Ex. 55] (H-RPRLSARG[NMeA]MP[Phe(4-Cl)]-OH; N-terminus and C-terminus assumed)
14 | 0.26 | 0.071 | CC(C)C[C@H](NC(=O)[C@H](CCCNC(=N)N)NC(=O)[C@@H]1CCCN1C(=O)[C@H](CCCNC(=N)N)NC(=O)[C@H](CCC(N)=O)NC(=O)[C@H](CCCNC(=N)N)NC(=O)[C@@H](N)CCCNC(=N)N)C(=O)N[C@@H](CO)C(=O)N[C@@H](C)C(=O)N[C@@H](CCCNC(=N)N)C(=O)NCC(=O)N1CCC[C@H]1C(=O)O [Compound in Ex. 19]
15 | 0.1 | 0.35 | CSCC[C@H](NC(=O)[C@@H]1CCCN1C(=O)CNC(=O)[C@H](CCCCN)NC(=O)[C@H](Cc1c[nH]cn1)NC(=O)[C@H](CO)NC(=O)[C@H](CC(C)C)NC(=O)[C@H](CCCNC(=N)N)NC(=O)[C@@H]1CCCN1C(=O)[C@@H](N)CCCNC(=N)N)C(=O)N1CCC[C@H]1C(=O)N[C@@H](Cc1ccc2ccccc2c1)C(=O)O [Compound in Ex. 32]
